Assay results published in patent US8003595B2, “Amino acid sequences facilitating penetration of a substance of interest into cells and/or cell nuclei” (Cellectis, priority 2000, dated 2011).
Read-outs that look alike come from different tables or passages of the source. Marks after values point to notes of the source that are not given here.

What was measured:
[1] = ELISA fixation of biotinylated peptides on sensitized plates; format: binding; settings: for EC50: Table 4, read-out: avidity: quantity of peptides necessary to obtain 50% fixation, Chondroitin B; for Kd: read-out: avidity (Kd), quantity of peptides necessary to obtain 50% fixation, Chondroitin B, Table 5
[2] = as above; format: binding; settings: for EC50: Table 4, read-out: avidity: quantity of peptides necessary to obtain 50% fixation, Chondroitin A; for Kd: read-out: avidity (Kd), quantity of peptides necessary to obtain 50% fixation, Chondroitin A, Table 5
[3] = as above; format: binding; settings: for EC50: ELISA plates sensitized with heparin, Table 4, read-out: avidity: quantity of peptides necessary to obtain 50% fixation, Heparin; for Kd: read-out: avidity (Kd), quantity of peptides necessary to obtain 50% fixation, Heparin
Description: (§1) The capacity of peptides SEQ ID NO: 1 to 21 to attach themselves to DNA and heparin is evaluated on ELISA plates sensitized with DNA or heparin. Dilutions of biotinylated peptides are deposited on the plates and their fixation is shown using streptavidin conjugated with peroxidase. […] The avidity of each of the peptides for DNA or heparin is evaluated by the quantity (×10^−6 M) of peptides necessary to obtain 50% fixation.

[4] = system: DNA; assay: as above; format: binding; settings: ELISA plates sensitized with DNA; read-out: avidity: quantity of peptides necessary to obtain 50% fixation, DNA
Description: as §1

[5] = as above; format: binding; settings: for EC50: Table 4, read-out: avidity: quantity of peptides necessary to obtain 50% fixation, Chondroitin C; for Kd: read-out: avidity (Kd), quantity of peptides necessary to obtain 50% fixation, Chondroitin C, Table 5
[6] = system: H1299 cells; assay: Internalization of biotinylated peptide/S-PO complexes; format: cell-based, human
Description: A biotinylated/S-PO peptide or biotinylated/A-PO complex (A-PO for avidin-peroxidase) is prepared extemporaneously in two ways:
1) either in a peptide: S-PO or A-PO molar ratio of 4:1 (for example, 1.4 μg of peptide with a molecular weight of 3500 to 10 μg of S-PO; the weight of S-PO used varies depending on the peptides since their molecular weights are different).
2) or in a peptide: S-PO or A-PO molar ratio of 25:1 (for example 1.7 μg of peptide with a molecular weight of 3500 to 1 μg of S-PO).
The complexes are prepared by incubating the biotinylated peptide with S-PO or A-PO in PBS in a volume of 5 to 10 μl for 15 minutes at laboratory temperature. They are then diluted in 1 ml of complete culture medium, filtered on a 0.2 micron membrane and incubated with the cells for 4 hours. The cells are then washed three times with PBS.
To study the penetration of the complexes under a microscope, the cells are fixed as before for 15 minutes in ethanol at −20° C., they are washed with PBS, and the activity of the internalized peroxidase is shown by diaminobenzidine in the presence of H2O2. To measure the quantity of peptide/S-PO or A-PO complexes internalized, the cells are trypsinized, transferred into microtubes and counted. They are washed twice by centrifugation, then the residue is suspended in 200 μl of lysis buffer (Tris buffer, 0.1 M, pH8, 0.5% Nonidet). After 15 minutes, the peroxidase contained in the lysis buffer is dosed onto 96-well plates with ortho-dianisidine and H2O2 by comparison with a standard curve for S-PO. The reading is taken at 450 nm. The quantity contained in the different samples is expressed in picograms (pg) per 10^4 cells.
Table 7 below reports the results of evaluating the influence of SEQ ID NO: 1 on the penetration of peptides coupled to SEQ ID NO: 1 into H1299 cells, where
Concentration a: 25 peptides to one molecule of S-PO (1 μg),
Concentration b: 4 peptides to one molecule of S-PO (10 μg).

[7] = system: H1299 cells; assay: Internalization of covalent peptide-peroxidase conjugates; format: cell-based, human; settings: for quantity of peptide internalized: 2 hours
Description: To evaluate more directly the penetration of the peptides, avoiding the avidin-peroxidase bias, some of the peptides in sequences SEQ ID NO: 25 to 48 were conjugated covalently with cysteine in the C-terminal position of the peptide to peroxidase. The peptides were coupled with peroxidase in the following way:
One mg of peroxidase activated with maleimide (Sigma) in 100 μl of sodium phosphate buffer, NaCl 0.15 M, EDTA 5 mM, had 1 mg of peptide added to it. After 2 hours at laboratory temperature, β-mercaptoethanol is added to a final concentration of 1.5 mM for 15 minutes. The uncoupled peptide is eliminated by centrifugation on ultrafiltration membranes (cut-off threshold=30,000 Daltons, Sartorius), followed by three washings in sodium phosphate buffer 0.1 M, pH 7.4 containing 0.15 M NaCl.
The H1299 cells are incubated for 2 hours with the conjugates at increasing concentrations of peptide-peroxidase in the culture medium, then washed with PBS. The cells are lysed and the quantity of peptide internalized is evaluated by the dosage of peroxidase in the lysate of the cells with reference to a curve established with peptide-peroxidase.
The quantity of peptide internalized (pg/10^3 cells), depending on the concentrations of conjugates in the culture medium, is shown in Table 8 below.
It appears that the higher the concentration of peptide-peroxidase conjugate in the culture medium, the more the quantity internalized increases. To compare the penetration of the conjugates by cell type, the cells from different lines were incubated with 0.2 μg/ml of peptide-peroxidase conjugate for 2 hours, and the quantity of peroxidase dosed in the lysates. Table 9 and Table 9B below give the results expressed in pg/10^3 cells. The quantity of each peptide internalized in the different lines generally varies only from single to double.

[8] = system: cells; assay: Penetration of biotinylated peptides inside cells (microscopy, S-PO coloration); format: cell-based; settings: biotinylated peptides 50 to 6 μg/ml, 1-18 hours, revealed with S-PO
Description: The cells are cultivated in the presence of the different peptides carrying, on the N-terminal side, biotin in decreasing concentrations (50 to 6 μg/ml) in the culture medium for variable times (1-18 hours).
At the end of the culture, the cells are washed three times with PBS (0.15 M NaCl buffered with 0.01 M potassium phosphate buffer pH 7.4) then fixed 15 minutes in ethanol at −20° C. The penetration of the peptide is evaluated after incubation for 30 minutes with streptavidin conjugated with peroxidase (abbreviated S-PO for streptavidin-peroxidase). Then, the S-PO is eliminated, and the cells are washed. […] With the other peptides, positive colorations, but of variable intensity, were noted.

[9] = Conc. a: 25 peptides to one molecule of S-PO (1 μg)
[10] = Conc. b: 4 peptides to one molecule of S-PO (10 μg)

Substance	EC50 [1] [nM]	EC50 [2] [nM]	EC50 [3] [nM]	EC50 [4] [nM]	EC50 [5] [nM]	further results
GRPRESGKKRKRKRLKP [compound 21]	120	120	70	200	120	
KSRK [compound 18]	> 134000	> 134000	> 134	> 134000	> 134000	
KSRKKSRK [compound 19]	> 74000	> 74000	> 74000	> 74000	> 74000	
LRKRLLRD [compound 17]	> 150000	> 150000	> 150000	> 150000	> 150000	
LRRERQSRLRRERSQSR [SEQ ID NO: 39]						Kd [1]: 100 nM; Kd [2]: 100 nM; Kd ([3]; Table 5): 100 nM; Kd [5]: 100 nM
RGVRPRVTRMDVRHVRPRVTRMDV [compound 15]	4000	200	> 30000	3000	5000	
RHVRPRVTRMDVVKRGLKLRHVRPRVTRMDV [compound 16]	9	12	24	19	2	
RKGFYKRKQCKP [SEQ ID NO: 20]						Kd [1]: 40 nM; S-PO internalized ([6]; peptide: S-PO complexes of 4:1, peptide concentration of 1 μg): 431 pg/10^4 cells; Kd [2]: 60 nM; Kd ([3]; Table 5): 70 nM; Kd [5]: 100 nM
RKGFYKRKQCKP [compound 20]	40	60	70	90	100	
RKKRRRGDRKKRRRGD [SEQ ID NO: 28]						percentage of quantity of peroxidase internalized compared to quantity deposited ([7]; 0.01 μg/ml): (0.006)* %; percentage of quantity of peroxidase internalized compared to quantity deposited ([7]; 0.1 μg/ml): (1.6) %; percentage of quantity of peroxidase internalized compared to quantity deposited ([7]; 0.5 μg/ml): (7.6) %; percentage of quantity of peroxidase internalized compared to quantity deposited ([7]; 1 μg/ml): (8.8) %; quantity of peptide internalized ([7]; peptide-peroxidase 0.01 μg/ml): 0.006 pg/10^3 cells; quantity of peptide internalized ([7]; peptide-peroxidase 0.1 μg/ml): 1.7 pg/10^3 cells; quantity of peptide internalized ([7]; peptide-peroxidase 0.5 μg/ml): 37.9 pg/10^3 cells; quantity of peptide internalized ([7]; peptide-peroxidase 1 μg/ml): 8860 pg/10^3 cells; avidity (Kd), quantity of peptides necessary to obtain 50% fixation, Heparin ([3]; Table 5): lost its affinity for heparin; Kd ([3]; Table 5): 407 nM
RQKYNKRAMDY [compound 4]	6200	5600	5000	4000	5000	
SEQ ID NO: 4: Peptide corresponding to the hypervariable area CD3 of the anti-DNA monoclonal murine antibody F4.1 (RQKYNKRAMDY; Mus musculus x Rattus norvegicus)						S-PO internalized [6, 9]: 2 pg/10^4 cells; S-PO internalized [6, 10]: 280 pg/10^4 cells; intracellular cytochemical coloration [8]: do not give any positive intracellular cytochemical coloration
SEQ ID NO: 5: Peptide containing SEQ ID NO: 1 and SEQ ID NO: 4 (VKRGLKLRQKYNKRAMDY; Homo sapiens - Mus musculus - Rattus norvegicus)						S-PO internalized [6, 9]: 100 pg/10^4 cells; S-PO internalized [6, 10]: 6250 pg/10^4 cells; intracellular cytochemical coloration [8]: intense coloration
SEQ ID NO: 11: SEQ ID NO: 1 and CDR3 of the human anti-DNA monoclonal antibody RT72 (VKRGLKLGYYDFWSGPGKN; listed as Homo sapiens)						intracellular cytochemical coloration [8]: do not give any positive intracellular cytochemical coloration
SEQ ID NO: 12: Peptide containing the NLS sequence of cells 3T3 and SEQ ID NO: 6 (NVKKPKLTYYSDTVKGRFTRQKYNKRA; Mus musculus x Rattus norvegicus)						intracellular cytochemical coloration [8]: do not give any positive intracellular cytochemical coloration
SEQ ID NO: 15: twice the CDR3 region peptide of anti-DNA human monoclonal antibody NE-1 (RGVRPRVTRMDVRHVRPRVTRMDV; listed as Homo sapiens)						S-PO internalized [6, 9]: 250 pg/10^4 cells; S-PO internalized [6, 10]: 6670 pg/10^4 cells
SEQ ID NO: 16: inclusion, in position 13-19, of SEQ ID NO: 1 in SEQ ID NO: 15 (RHVRPRVTRMDVVKRGLKLRHVRPRVTRMDV; listed as Homo sapiens)						S-PO internalized [6, 9]: 430 pg/10^4 cells; S-PO internalized [6, 10]: 5220 pg/10^4 cells
TYYSDTVKGRFTRQKYNKRA [compound 6]	250	240	160	190	220	
VKRGLKL [compound 1]	> 100000	> 100000	> 100000	> 100000	> 100000	
VKRGLKLRQKYNKRAMDY [compound 5]	110	130	110	110	110	
VKRGLKLTYYSDTVKGRFTRQYNKRA [compound 7]	40	60	50	50	60	
VKRGLKLVKRGLKL [compound 2]	600	550	760	2200	550	
VKRGLKLVKRGLKLVKRGLKL [compound 3]	41	37	41	50	35	
VKRGLKLVRRSGRVVVPAAPRNRD [compound 9]	500	17	3700	3700	> 8000	
VRRSGRVVVPAAPRNRD [compound 8]	> 150000	> 150000	> 150000	> 150000	> 150000	
